Measured values reported in ChEMBL document CHEMBL1833864, “N'-(arylsulfonyl)pyrazoline-1-carboxamidines as novel, neutral 5-hydroxytryptamine 6 receptor (5-HT₆R) antagonists with unique structural features” (J Med Chem, 2011).

Assays:
in vitro [1] = details: Sprague-Dawley, rat, hepatocytes
[2] = molecular target: 5-hydroxytryptamine receptor 6 (Homo sapiens, UniProt P50406); test: Displacement of [3H]-methyllysergic acid diethylamide from human 5-HT6 receptor expressed in CHO cells after 30 mins by liquid scintillation counting; assay type: cell-based
Sequence of 5-hydroxytryptamine receptor 6 (P50406 whole entry): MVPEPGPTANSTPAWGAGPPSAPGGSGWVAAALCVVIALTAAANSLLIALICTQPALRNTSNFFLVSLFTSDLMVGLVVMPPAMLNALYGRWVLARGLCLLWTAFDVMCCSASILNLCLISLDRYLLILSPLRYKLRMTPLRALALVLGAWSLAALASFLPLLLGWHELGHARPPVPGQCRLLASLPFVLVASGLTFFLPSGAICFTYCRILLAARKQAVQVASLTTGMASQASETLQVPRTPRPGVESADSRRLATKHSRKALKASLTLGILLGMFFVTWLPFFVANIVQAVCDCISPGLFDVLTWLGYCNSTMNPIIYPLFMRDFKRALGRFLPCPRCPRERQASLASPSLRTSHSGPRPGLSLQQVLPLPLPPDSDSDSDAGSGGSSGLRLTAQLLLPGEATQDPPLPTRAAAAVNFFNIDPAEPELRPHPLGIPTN

in vitro [3] = details: human, hepatocytes
Cytochrome P450 1A2 = Cytochrome P450 1A2 (Homo sapiens, UniProt P05177); test: Inhibition of CYP 1A2; assay type: ADME
Cytochrome P450 2C19 = Cytochrome P450 2C19 (Homo sapiens, UniProt P33261); test: Inhibition of CYP 2C19; assay type: ADME
[4] = Bioavailability in Wistar rat at 10 mg/kg, ip; assay type: ADME, organism-based; details: in vivo
[5] = molecular target: Voltage-gated inwardly rectifying potassium channel KCNH2 (Homo sapiens, UniProt Q12809)
Sequence of Voltage-gated inwardly rectifying potassium channel KCNH2 (Q12809 whole entry): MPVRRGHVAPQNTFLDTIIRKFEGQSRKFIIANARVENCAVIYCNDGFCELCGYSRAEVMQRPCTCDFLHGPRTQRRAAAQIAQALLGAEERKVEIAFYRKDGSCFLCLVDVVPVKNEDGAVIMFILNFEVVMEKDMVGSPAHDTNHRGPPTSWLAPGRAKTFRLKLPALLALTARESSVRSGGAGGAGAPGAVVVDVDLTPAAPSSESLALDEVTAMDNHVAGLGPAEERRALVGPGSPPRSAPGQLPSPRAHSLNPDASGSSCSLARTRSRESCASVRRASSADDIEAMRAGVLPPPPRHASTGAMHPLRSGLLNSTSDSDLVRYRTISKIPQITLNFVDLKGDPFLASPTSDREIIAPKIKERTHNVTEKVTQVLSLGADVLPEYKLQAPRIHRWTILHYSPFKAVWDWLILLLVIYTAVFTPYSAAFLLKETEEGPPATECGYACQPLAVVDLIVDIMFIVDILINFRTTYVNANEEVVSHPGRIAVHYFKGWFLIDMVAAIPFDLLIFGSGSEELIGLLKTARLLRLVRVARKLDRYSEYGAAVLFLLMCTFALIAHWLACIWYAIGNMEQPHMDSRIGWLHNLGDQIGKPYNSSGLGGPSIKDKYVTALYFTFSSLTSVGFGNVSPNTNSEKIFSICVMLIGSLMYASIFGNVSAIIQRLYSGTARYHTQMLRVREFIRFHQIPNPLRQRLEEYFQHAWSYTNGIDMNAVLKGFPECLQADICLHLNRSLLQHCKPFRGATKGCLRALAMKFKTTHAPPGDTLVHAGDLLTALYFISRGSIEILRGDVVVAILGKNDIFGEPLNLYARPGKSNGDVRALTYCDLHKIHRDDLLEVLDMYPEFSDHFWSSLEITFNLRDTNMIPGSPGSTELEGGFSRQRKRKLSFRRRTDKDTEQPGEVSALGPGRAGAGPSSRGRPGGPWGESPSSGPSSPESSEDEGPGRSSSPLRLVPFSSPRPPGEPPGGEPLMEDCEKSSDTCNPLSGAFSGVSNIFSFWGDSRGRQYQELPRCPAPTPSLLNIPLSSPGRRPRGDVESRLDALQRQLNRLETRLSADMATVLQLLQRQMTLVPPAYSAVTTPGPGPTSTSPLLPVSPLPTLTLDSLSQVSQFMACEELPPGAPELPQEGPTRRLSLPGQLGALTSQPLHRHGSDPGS

[6] = Half life in Wistar rat plasma at 10 mg/kg, po; assay type: ADME, organism-based; set-up: dose 10 mg/kg, route oral
[7] = Oral bioavailability in Wistar rat at 10 mg/kg; assay type: ADME, organism-based; details: in vivo
[8] = molecular target: 5-hydroxytryptamine receptor 2B (Homo sapiens, UniProt P41595); test: Inhibition of human 5-HT2B receptor
Sequence of 5-hydroxytryptamine receptor 2B (P41595 whole entry): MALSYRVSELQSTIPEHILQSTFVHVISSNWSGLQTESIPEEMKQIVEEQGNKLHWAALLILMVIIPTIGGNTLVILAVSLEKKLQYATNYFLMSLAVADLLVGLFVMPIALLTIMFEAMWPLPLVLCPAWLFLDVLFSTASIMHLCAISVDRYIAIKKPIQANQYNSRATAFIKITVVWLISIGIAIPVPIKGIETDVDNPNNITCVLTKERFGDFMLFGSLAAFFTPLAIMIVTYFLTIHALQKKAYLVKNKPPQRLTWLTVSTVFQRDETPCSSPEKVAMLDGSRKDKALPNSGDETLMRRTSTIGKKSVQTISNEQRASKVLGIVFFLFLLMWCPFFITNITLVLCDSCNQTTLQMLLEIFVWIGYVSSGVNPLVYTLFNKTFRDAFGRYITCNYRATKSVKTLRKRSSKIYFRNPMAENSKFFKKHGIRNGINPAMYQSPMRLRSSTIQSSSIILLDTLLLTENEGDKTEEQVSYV

[9] = Ratio of drug level in brain to plasma in Wistar rat at 10 mg/kg, po; assay type: ADME, organism-based; set-up: dose 10 mg/kg, route oral; details: brain and plasma
Cytochrome P450 2D6 = Cytochrome P450 2D6 (Homo sapiens, UniProt P10635); test: Inhibition of CYP 2D6; assay type: ADME
[10] = Fraction unbound in rat brain homogenate at 1 uM after 6 hrs by […]; assay type: ADME, tissue-based
LLC-PK1 = details: pig
Description: Permeability across pig LLC-PK1 cell line overexpressing human MDR1 at 3 hrs by LC/MS analysis

[11] = Half life in Wistar rat plasma at 1 mg/kg, iv; assay type: ADME, organism-based; set-up: dose 1 mg/kg, route intravenous
[12] = Plasma protein binding in human at 5 uM by LC/MS/MS analysis; assay type: ADME, cell-free; details: read-out: PPB (converted)
Cytochrome P450 2C9 = Cytochrome P450 2C9 (Homo sapiens, UniProt P11712); test: Inhibition of CYP 2C9; assay type: ADME
Cavia porcellus [13] = test: Cardiotoxicity in telemetered conscious freely moving Dunkin-Hartley guinea pig assessed as prolongation of electrocardiographic QTc interval at 100 mg/kg, sc administered for 120 mins; assay type: toxicity, organism-based; set-up: dose 100 mg/kg, route subcutaneous; details: in vivo, 2 h
[14] = Tmax in Wistar rat; assay type: ADME, organism-based; details: in vivo
Cytochrome P450 3A4 = Cytochrome P450 3A4 (Homo sapiens, UniProt P08684); test: Inhibition of CYP 3A4; assay type: ADME
[15] = molecular target: Muscarinic acetylcholine receptor M4 (Homo sapiens, UniProt P08173); test: Inhibition of human muscarinic M4 receptor
[16] = molecular target: Muscarinic acetylcholine receptor M3 (Homo sapiens, UniProt P20309); test: Inhibition of human muscarinic M3 receptor
[17] = molecular target: 5-hydroxytryptamine receptor 3A (Homo sapiens, UniProt P46098); test: Inhibition of human 5-HT3 receptor
Sequence of 5-hydroxytryptamine receptor 3A (P46098 whole entry): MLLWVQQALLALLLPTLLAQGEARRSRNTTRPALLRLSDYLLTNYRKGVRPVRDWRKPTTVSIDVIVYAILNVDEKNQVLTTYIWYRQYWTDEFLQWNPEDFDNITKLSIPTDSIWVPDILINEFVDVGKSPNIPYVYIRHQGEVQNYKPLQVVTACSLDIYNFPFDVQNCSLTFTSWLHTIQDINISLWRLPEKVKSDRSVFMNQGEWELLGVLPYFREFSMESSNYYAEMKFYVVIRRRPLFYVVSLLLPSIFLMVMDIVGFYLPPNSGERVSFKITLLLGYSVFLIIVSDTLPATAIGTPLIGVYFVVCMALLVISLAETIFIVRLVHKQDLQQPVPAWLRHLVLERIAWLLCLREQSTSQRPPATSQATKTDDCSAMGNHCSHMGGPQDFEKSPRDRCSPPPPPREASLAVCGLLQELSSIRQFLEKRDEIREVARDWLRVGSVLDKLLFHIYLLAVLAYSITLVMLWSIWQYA

Cavia porcellus [18] = test: Cardiotoxicity in telemetered conscious freely moving Dunkin-Hartley guinea pig assessed as prolongation of electrocardiographic QTc interval at 50 mg/kg, po measured up to 120 mins; assay type: toxicity, organism-based; set-up: dose 50 mg/kg, route oral; details: in vivo, 2 h
[19] = molecular target: Muscarinic acetylcholine receptor M1 (Homo sapiens, UniProt P11229); test: Inhibition of human muscarinic M1 receptor
[20] = molecular target: T1, 5-hydroxytryptamine receptor 1A (Homo sapiens, UniProt P08908); test: Inhibition of human 5-HT1A receptor
T1 sequence (P08908 whole entry): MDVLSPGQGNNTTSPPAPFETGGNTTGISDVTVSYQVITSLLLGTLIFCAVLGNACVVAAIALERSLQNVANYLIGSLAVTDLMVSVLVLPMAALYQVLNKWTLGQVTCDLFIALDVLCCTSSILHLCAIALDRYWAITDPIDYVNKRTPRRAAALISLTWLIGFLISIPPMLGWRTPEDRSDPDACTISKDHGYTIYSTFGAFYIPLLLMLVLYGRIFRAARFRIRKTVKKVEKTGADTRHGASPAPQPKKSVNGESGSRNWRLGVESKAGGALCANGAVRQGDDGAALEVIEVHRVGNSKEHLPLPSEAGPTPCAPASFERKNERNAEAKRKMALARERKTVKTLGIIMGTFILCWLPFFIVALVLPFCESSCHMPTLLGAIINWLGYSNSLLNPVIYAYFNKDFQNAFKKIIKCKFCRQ

[21] = molecular target: Muscarinic acetylcholine receptor M5 (Homo sapiens, UniProt P08912); test: Inhibition of human muscarinic M5 receptor
[22] = Inhibition of human sigma receptor
[23] = molecular target: Muscarinic acetylcholine receptor M2 (Homo sapiens, UniProt P08172); test: Inhibition of human muscarinic M2 receptor
[24] = Plasma protein binding in rat at 5 uM by LC/MS/MS analysis; assay type: ADME, cell-free; details: read-out: PPB (converted)
[25] = molecular target: 5-hydroxytryptamine receptor 1D (Homo sapiens, UniProt P28221); test: Inhibition of human 5-HT1D receptor
Sequence of 5-hydroxytryptamine receptor 1D (P28221 whole entry): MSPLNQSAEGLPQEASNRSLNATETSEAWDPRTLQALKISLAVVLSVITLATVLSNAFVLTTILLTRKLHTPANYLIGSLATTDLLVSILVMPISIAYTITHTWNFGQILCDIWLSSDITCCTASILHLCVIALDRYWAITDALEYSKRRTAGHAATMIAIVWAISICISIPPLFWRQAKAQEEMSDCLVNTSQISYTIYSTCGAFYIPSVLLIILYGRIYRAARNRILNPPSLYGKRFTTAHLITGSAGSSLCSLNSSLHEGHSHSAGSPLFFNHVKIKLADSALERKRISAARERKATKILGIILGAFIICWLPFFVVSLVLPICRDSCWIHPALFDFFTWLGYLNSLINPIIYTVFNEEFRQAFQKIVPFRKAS

Cavia porcellus [26] = test: Cardiotoxicity in telemetered conscious freely moving Dunkin-Hartley guinea pig assessed as prolongation of electrocardiographic QTc interval at 10 mg/kg, po measured up to 120 mins; assay type: toxicity, organism-based; set-up: dose 10 mg/kg, route oral; details: in vivo, 2 h
[27] = molecular target: 5-hydroxytryptamine receptor 7 (Homo sapiens, UniProt P34969); test: Inhibition of human 5-HT7 receptor
Sequence of 5-hydroxytryptamine receptor 7 (P34969 whole entry): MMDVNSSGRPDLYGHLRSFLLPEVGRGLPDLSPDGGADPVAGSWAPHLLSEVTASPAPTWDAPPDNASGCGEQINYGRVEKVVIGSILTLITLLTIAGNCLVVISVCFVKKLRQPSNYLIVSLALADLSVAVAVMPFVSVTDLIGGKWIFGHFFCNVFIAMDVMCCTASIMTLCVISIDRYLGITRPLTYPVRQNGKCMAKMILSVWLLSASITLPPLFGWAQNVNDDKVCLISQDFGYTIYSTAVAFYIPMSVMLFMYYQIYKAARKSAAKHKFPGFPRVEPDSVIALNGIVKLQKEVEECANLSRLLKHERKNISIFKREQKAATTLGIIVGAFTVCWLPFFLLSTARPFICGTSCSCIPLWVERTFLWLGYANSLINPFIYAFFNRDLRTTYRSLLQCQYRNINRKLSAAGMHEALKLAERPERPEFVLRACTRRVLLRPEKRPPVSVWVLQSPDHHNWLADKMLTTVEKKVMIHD

[28] = molecular target: 5-hydroxytryptamine receptor 2A (Homo sapiens, UniProt P28223); test: Inhibition of human 5-HT2A receptor
Sequence of 5-hydroxytryptamine receptor 2A (P28223 whole entry): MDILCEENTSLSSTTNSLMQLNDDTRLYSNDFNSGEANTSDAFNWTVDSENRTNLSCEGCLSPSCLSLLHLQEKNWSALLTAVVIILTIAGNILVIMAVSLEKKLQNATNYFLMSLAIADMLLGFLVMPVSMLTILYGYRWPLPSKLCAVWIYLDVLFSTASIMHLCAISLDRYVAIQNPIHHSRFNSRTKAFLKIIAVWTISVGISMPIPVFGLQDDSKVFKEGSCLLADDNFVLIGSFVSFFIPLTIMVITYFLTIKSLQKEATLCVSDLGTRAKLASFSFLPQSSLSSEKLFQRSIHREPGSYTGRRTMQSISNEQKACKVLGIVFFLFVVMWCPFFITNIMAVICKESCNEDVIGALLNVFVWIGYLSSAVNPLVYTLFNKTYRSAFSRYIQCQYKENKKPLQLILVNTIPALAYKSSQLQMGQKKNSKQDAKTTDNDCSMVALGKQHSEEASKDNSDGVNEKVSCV

[29] = molecular target: 5-hydroxytryptamine receptor 2C (Homo sapiens, UniProt P28335); test: Inhibition of human 5-HT2C receptor
Sequence of 5-hydroxytryptamine receptor 2C (P28335 whole entry): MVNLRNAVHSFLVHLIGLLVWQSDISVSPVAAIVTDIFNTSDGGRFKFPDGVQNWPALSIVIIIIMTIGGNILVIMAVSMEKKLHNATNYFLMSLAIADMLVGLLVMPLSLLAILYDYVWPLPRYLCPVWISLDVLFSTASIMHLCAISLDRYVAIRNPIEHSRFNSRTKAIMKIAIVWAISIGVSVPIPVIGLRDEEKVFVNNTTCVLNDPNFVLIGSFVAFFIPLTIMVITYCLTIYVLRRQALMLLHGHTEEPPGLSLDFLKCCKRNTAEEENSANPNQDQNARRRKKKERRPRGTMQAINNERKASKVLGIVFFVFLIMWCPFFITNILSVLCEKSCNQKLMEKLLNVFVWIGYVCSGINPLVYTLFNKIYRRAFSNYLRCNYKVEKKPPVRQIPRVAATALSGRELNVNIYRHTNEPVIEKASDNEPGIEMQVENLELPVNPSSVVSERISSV

D(2) dopamine receptor = D(2) dopamine receptor (Homo sapiens, UniProt P14416); test: Inhibition of human dopamine D2 receptor
Sequence of D(2) dopamine receptor (P14416 whole entry): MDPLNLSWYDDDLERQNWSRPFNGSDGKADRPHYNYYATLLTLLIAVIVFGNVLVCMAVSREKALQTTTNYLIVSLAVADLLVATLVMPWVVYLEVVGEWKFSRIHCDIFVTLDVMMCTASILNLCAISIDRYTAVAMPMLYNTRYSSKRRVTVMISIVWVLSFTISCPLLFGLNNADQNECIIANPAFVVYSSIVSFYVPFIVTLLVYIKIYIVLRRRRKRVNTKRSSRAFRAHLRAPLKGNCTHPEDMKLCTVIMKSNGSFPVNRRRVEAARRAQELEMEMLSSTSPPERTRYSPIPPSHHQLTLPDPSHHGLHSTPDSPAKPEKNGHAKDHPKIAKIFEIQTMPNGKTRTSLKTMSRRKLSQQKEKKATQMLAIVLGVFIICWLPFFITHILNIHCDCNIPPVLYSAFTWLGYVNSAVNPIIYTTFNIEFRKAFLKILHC

Row | hepatocyte CLint at 1 ug/mL (in vitro [1]) [µL/min/1e6 cells] | Ki [2] [µM] | hepatocyte CLint at 1 ug/mL (in vitro [3]) [µL/min/1e6 cells] | SMILES | further results
1 | 99 | 0.0278 | 39 | CCN/C(=N\S(=O)(=O)c1ccccc1Cl)N1CC(CC)C=N1 (stereo unspecified) | –
2 | – | 0.092 | – | CCC1C=NN(/C(=N/S(=O)(=O)c2ccccc2Cl)NCc2ccccc2)C1 (stereo unspecified) | –
3 | – | > 1 | – | CCC1C=NN(/C(=N/S(=O)(=O)c2ccccc2Cl)Nc2ccccc2)C1 (stereo unspecified) | –
4 | – | > 1 | – | CCC1C=NN(/C(=N/S(=O)(=O)c2ccccc2Cl)NC(C)C)C1 (stereo unspecified) | –
5 | – | 0.0339 | – | CCN/C(=N\S(=O)(=O)c1ccccc1)N1CC(CC)C=N1 (stereo unspecified) | –
6 | – | 0.0146 | – | CCCN/C(=N\S(=O)(=O)c1cccc(Cl)c1)N1CC(CC)C=N1 (stereo unspecified) | –
7 | – | 0.0242 | – | CCC1C=NN(/C(N)=N/S(=O)(=O)c2cccc(Cl)c2)C1 (stereo unspecified) | –
8 | – | 0.008 | – | CCN/C(=N\S(=O)(=O)c1cccc(Cl)c1)N1CC(C)C=N1 (stereo unspecified) | –
9 | – | 0.0339 | – | CCN/C(=N\S(=O)(=O)c1cccc(Cl)c1)N1CCC=N1 | –
10 | – | 0.231 | – | CCN/C(=N\S(=O)(=O)c1cccc(Cl)c1)N1CCC(C)=N1 | –
11 | – | > 1 | – | CCC1C=NN(/C(=N/S(=O)(=O)c2cccc(Cl)c2)N(C)C)C1 (stereo unspecified) | –
12 | 116 | – | 107 | CCN=C(NS(=O)(=O)c1cccc(Cl)c1)N1N=CC[C@H]1c1ccccc1 | –
13 | 107 | – | – | CCN=C(NS(=O)(=O)c1cccc(Cl)c1)N1N=CC[C@@H]1c1ccccc1 | –
14 | 116 | 0.0179 | 27 | CCN/C(=N\S(=O)(=O)c1cccc(C(F)(F)F)c1)N1CC(CC)C=N1 (stereo unspecified) | –
15 | 116 | 0.0274 | 51 | CCN/C(=N\S(=O)(=O)c1cccc(C)c1)N1CC(CC)C=N1 (stereo unspecified) | –
16 | 92 | 0.0266 | 46 | CCN/C(=N\S(=O)(=O)c1cccc(OC)c1)N1CC(CC)C=N1 (stereo unspecified) | –
17 | 198 | 0.0079 | 92 | CCN/C(=N\S(=O)(=O)c1ccc(Cl)c(Cl)c1)N1CC(CC)C=N1 (stereo unspecified) | –
18 | 116 | 0.119 | – | CCN/C(=N\S(=O)(=O)c1cc(Cl)ccc1Cl)N1CC(CC)C=N1 (stereo unspecified) | –

Row | hepatocyte CLint at 1 ug/mL (in vitro [1]) [µL/min/1e6 cells] | Ki [2] [µM] | hepatocyte CLint at 1 ug/mL (in vitro [3]) [µL/min/1e6 cells] | SMILES | further results
19 | 126 | 0.197 | – | CCN/C(=N\S(=O)(=O)c1c(Cl)cccc1Cl)N1CC(CC)C=N1 (stereo unspecified) | –
20 | 116 | 0.0027 | 36 | CCN/C(=N\S(=O)(=O)c1cccc(Cl)c1F)N1CC(CC)C=N1 (stereo unspecified) | –
21 | 139 | 0.0172 | 41 | CCN/C(=N\S(=O)(=O)c1ccc2ccccc2c1)N1CC(CC)C=N1 (stereo unspecified) | –
22 | – | 0.0085 | – | CCNC(=N[S+]([O-])c1sc2ccc(Cl)cc2c1C)N1CC(CC)C=N1 (stereo unspecified) | –
23 | 116 | 0.0079 | 20 | CCN/C(=N\S(=O)(=O)c1c(Cl)nc2sccn12)N1CC(CC)C=N1 (stereo unspecified) | –
24 | 53 | – | 11 | CCN/C(=N\S(=O)(=O)c1c(C)nn(C)c1Cl)N1CC(CC)C=N1 (stereo unspecified) | –
25 | 20 | – | 4 | CCN/C(=N\S(=O)(=O)c1ccc(S(C)(=O)=O)cc1)N1CC(CC)C=N1 (stereo unspecified) | –
26 | – | 0.0241 | – | CCN/C(=N\S(=O)(=O)c1cccc(Cl)c1)N1CC(C)(C)C=N1 | IC50 (Cytochrome P450 1A2): > 10 µM; IC50 (Cytochrome P450 2C19): > 10 µM; bioavailability [4]: 45%; IC50 [5]: > 10 µM; half-life [6]: 2 h; bioavailability [7]: 7%; Ki [8]: 7.94 µM; Kp [9]: 1; IC50 (Cytochrome P450 2D6): > 10 µM; fraction unbound at 6 h, 1 µM [10]: 0.01; permeability (LLC-PK1; llc-pk1, 3 h): 41%; half-life [11]: 2 h; fraction unbound at 5 µM [12]: 0.37; IC50 (Cytochrome P450 2C9): > 10 µM; Activity (Cavia porcellus [13]): Non-toxic; Tmax [14]: 0.5 h; IC50 (Cytochrome P450 3A4): > 10 µM
27 | – | 0.0064 | – | CCN/C(=N\S(=O)(=O)c1cccc(Cl)c1)N1CC2(C=N1)CCCC2 | –
28 | – | 0.0052 | – | CCN/C(=N\S(=O)(=O)c1cccc(Cl)c1)N1CC2(C=N1)CCCCC2 | –
29 | 25 | – | 3 | CCN/C(=N\S(=O)(=O)c1cccc(Cl)c1)N1CC2(C=N1)CCNCC2 | Ki [15]: 10 µM; Ki [16]: 10 µM; IC50 [5]: 7.94 µM; Ki [17]: 10 µM; Activity (Cavia porcellus [18]): Toxic; Ki [19]: 10 µM; Ki ([20]; read-out: pKi (converted)): 10 µM; Ki [21]: 10 µM; pKi [22]: 5; Ki [23]: 10 µM; fraction unbound at 5 µM [24]: 0.41; permeability (LLC-PK1; llc-pk1, 3 h): 14.7%; Ki ([25]; read-out: pKi (converted)): 10 µM; fraction unbound at 5 µM [12]: 0.34; Activity (Cavia porcellus [26]): Non-toxic
30 | – | 0.092 | – | CCN=C(NS(=O)(=O)c1cccc(Cl)c1)N1CC(CF)(CF)C=N1 | –
31 | – | – | – | CCN/C(=N\S(=O)(=O)c1cccc(Cl)c1)N1CC(CC)C=N1 (racemic) | Ki [27]: > 1 µM; Ki ([20]; read-out: Ki): > 1 µM; Ki [28]: > 1 µM; Ki ([25]; read-out: Ki): > 1 µM; Ki [29]: > 1 µM; Ki (D(2) dopamine receptor): > 1 µM
32 | 116 | – | 73 | CCN/C(=N\S(=O)(=O)c1cccc(Cl)c1)N1N=CCC1c1ccccc1 (racemic) | IC50 [5]: > 10 µM; Ki [27]: > 1 µM; Ki ([20]; read-out: Ki): > 1 µM; Ki [28]: > 1 µM; permeability (LLC-PK1; LLC-PK1, 3 h): 38.5%; Ki ([25]; read-out: Ki): > 1 µM; Ki [29]: > 1 µM; Ki (D(2) dopamine receptor): > 1 µM
33 | 87 | 0.322 | 50 | CCN/C(=N\S(=O)(=O)c1cccc(Cl)c1)N1N=CCC1c1ccncc1 (racemic) | –
34 | 198 | 0.0082 | 92 | CCN/C(=N\S(=O)(=O)c1cccc(Cl)c1)N1N=CCC1c1ccco1 (racemic) | –
35 | 126 | 0.138 | 107 | CCN=C(NS(=O)(=O)c1cccc(Cl)c1)N1N=CCC1c1ccc(F)cc1 (racemic) | –

Row | SMILES | hepatocyte CLint at 1 ug/mL (in vitro [1]) [µL/min/1e6 cells] | Ki [2] [µM] | hepatocyte CLint at 1 ug/mL (in vitro [3]) [µL/min/1e6 cells] | further results
36 | CCC1C=NN(/C(=N/S(=O)(=O)c2cccc(Cl)c2)NC)C1 (stereo unspecified) | – | 0.0178 | – | –
37 | CCN/C(=N\S(=O)(=O)c1cccc(Cl)c1)N1CC(CC)(CC)C=N1 | – | 0.0499 | – | –
